Laboratory results taken from patent publication US20250177423A1, “PHOTORESPONSIVE PEPTIDE DELIVERY SYSTEM AND METHOD OF USING THE SAME” (THE UNIVERSITY OF HONG KONG, priority 2023, published 2025).

Experiments:
laser induced CNV [1] = assay: Laser induced CNV mouse model, imageological examination (OCTA, FFA, OCT); format: in vivo, C57BL/6 mice; settings: i.v. day 3 and 5, AS16 equivalent 2 mg/kg, day 7
Experimental: Four laser spots were produced on the fundus of mice by 810 nm laser to induce CNV. Specifically, C57BL/6 mice (6-8 w) were anesthetized with 1% pentobarbital sodium (40 mg/kg). Then their pupils were dilated with 0.5% tropicamide eyedrops and received local anesthesia by tetracaine eye drops, followed by carboxymethylcellulose sodium eye drops for prevention of ocular surface dehydration. Each mouse's eyes were applied four laser (six in case of western blot analysis) burns (810 nm wavelength, 140 mW of power, 75 μm of spot size, 75 ms of duration) with OcuLight Infrared Laser System at almost equal distance to the optic nerve head. Afterwards, the mice received chloramphenicol eye drops for infection prevention and rested on heating pad until consciousness. […] On day 3 and day 5 after laser photocoagulation, 2 mg/kg AS16 peptide and quantity equivalent nanoLAMPs were administered intravenously through tail veins. […] On day 7 post CNV induction, FFA (fluorescence fundus angiography) and OCTA (optical coherence tomography angiography) images of each group was collected, and the mice were then euthanized. […] Only the scan that passed through the center of the lesion was used to measure the thickness and length of the CNV lesion, which was analyzed and calculated by using ImageJ software and GraphPad Prism. […]

HUVEC cells [2] = assay: Wound healing assay; format: cell-based, human; settings: without light irradiation; AS16 5 μM
Experimental: 5*10^5 HUVEC cells were seeded in the 24-well plates and incubated until they reached 90% confluence. Afterwards, a scratch crossing each well was conducted by 200 μL pipette head. The cells were then be washed with PBS for 2 times to remove the flouting cells and incubated with 1 ml DMEM medium with 5% FBS. The grouping and treatment method was consistent with above. The data of each group was measured and analyzed by Image J and GraphPad Prism, respectively.
(§1) To verify the anti-angiogenic property of nanoLAMPs in vitro, tube formation assay, migration assay, and wound healing assay were also conducted on HUVECs and the concentration of each group was set equal to nanoLAMPs containing 5 μM AS16 peptide.

laser induced CNV [3] = assay: Laser induced CNV mouse model, isolated tissue (choroidal flat mounts CD31/Ki-67, H&E); format: in vivo, C57BL/6 mice; settings: without light irradiation; systemic administration
Experimental: Four laser spots were produced on the fundus of mice by 810 nm laser to induce CNV. Specifically, C57BL/6 mice (6-8 w) were anesthetized with 1% pentobarbital sodium (40 mg/kg). Then their pupils were dilated with 0.5% tropicamide eyedrops and received local anesthesia by tetracaine eye drops, followed by carboxymethylcellulose sodium eye drops for prevention of ocular surface dehydration. Each mouse's eyes were applied four laser (six in case of western blot analysis) burns (810 nm wavelength, 140 mW of power, 75 μm of spot size, 75 ms of duration) with OcuLight Infrared Laser System at almost equal distance to the optic nerve head. Afterwards, the mice received chloramphenicol eye drops for infection prevention and rested on heating pad until consciousness. […] On day 3 and day 5 after laser photocoagulation, 2 mg/kg AS16 peptide and quantity equivalent nanoLAMPs were administered intravenously through tail veins. […] On day 7 post CNV induction, FFA (fluorescence fundus angiography) and OCTA (optical coherence tomography angiography) images of each group was collected, and the mice were then euthanized. […] Flat-mounted RPE-choroid slides were prepared by making 4 cuts from margin to the optic nerve, and the fluorescence images were acquired by confocal microscopy (LMS980 Carl Zeiss). The CNV lesion area was quantitatively analyzed by ImageJ software. […]

HUVEC cells [4] = assay: Migration assay (trans-well); format: cell-based, human; settings: without light irradiation; AS16 equivalent 5 μM; 24 h
Experimental: 200 μL serum-free medium containing 2*10^4 HUVEC cells were seeded in the upper chamber of the trans-well and 600 μL full medium was loaded in the lower chamber. Different drugs were added to the upper chamber. The grouping and treatment method as well as the calculation was consistent with above.
as §1

[5] = test system: IL-2 and TNF-α gene expression in Jurkat T cells; assay: RT-qPCR of cytokine gene expression in Jurkat T cells co-cultured with MDA-MB-231 cells (PD-L1 blockade); format: cell-based; settings: Jurkat T cells after co-culture with MDA-MB-231 cells; FM12 released from cFM12 nanoparticles; vs PBS control
From the text: FIGS. 13A-F. BODIPY-caged FM12 peptide (cFM12) nanoparticles for photo-triggered PD-L1 blockade. […] (E) Size distribution of nanoparticles. (F) Schematic diagram of cFM12 nanoparticles. (*: p<0.05; **: p<0.01; ***: p<0.001). The data are presented as mean±SEM.
To further explore whether the BODIPY photocage can be utilized to deliver other hydrophilic peptides, a peptide inhibitor (FPNWSLRPMNQM, SEQ ID NO: 2, FM12) targeting programmed death ligand 1 (PD-L1) was conjugated with BODIPY at N-terminus to synthesize BODIPY-caged FM12 (cFM12). The conjugate could also form stable polymeric nanoparticles with the help of PEG3.4K-PLA5K. […] For nanoparticle preparation, in brief, 2 μL of 10 mg/mL cFM12 was mixed with 2 μL of 100 mg/mL PEG3.4K-PLA5K in DMSO solution. […] As shown in FIGS. 13e and 13f, the fabricated nanoparticles had well-dispersed size distribution with diameter around 122 nm and PDI around 0.2.

COc1ccc(C=CC2=[N+]3C(=C(CO)c4c(C)cc(C=Cc5ccc(OC)cc5)n4[B-]3(C)C)C(C)=C2)cc1 [BODIPY, (3,7-bis((E)-4-methoxystyryl)-1,5,5,9-tetramethyl-5H-4λ4,5λ4-dipyrrolo[1,2-c:2′,1′-f][1,3,2]diazaborinin-10-yl)methanol]
CNV area by OCTA (laser induced CNV [1]; with light irradiation (656 nm, 50mw/cm^2, 5 min)): negligible effect

ATWLPPRAANLLMAAS [AS16 peptide]
wound healing (recovery of scratches) (HUVEC cells [2]): significant compromised recovery of generated scratches | therapeutic effect compared with control group, tests in vivo (laser induced CNV [3]): negligible therapeutic effect | CNV area by OCTA (laser induced CNV [1]; without light exposure): negligible effect | HUVEC migration (HUVEC cells [4]): least migrated HUVECs

FPNWSLRPMNQM [FM12 peptide]
gene expression level of IL-2 [5]: promote the gene expression level | gene expression level of TNF-α [5]: promote the gene expression level
